Data reported in patent publication US20240368177A1, “5-AMINO-6,8-DIHYDRO-1H-FURO[3,4-d]PYRROLO[3,2-b]PYRIDINE-2-CARBOXAMIDE DERIVATIVES AS MTA-COOPERATIVE INHIBITORS OF PRMT5” (BeiGene Switzerland GmbH, priority 2023, published 2024).

Experiments:
[1] = tested on: HCT116-MTAP-KO; experiment: Cell killing in HCT116 isogenic pair (Cell Titer-Glo viability), MTAP knock-out cells; assay type: cell-based, human; conditions: Homo sapiens, HCT-116, 144 h, 6 days incubation, 0-10 μM, * = more than 50% viability inhibition at tested concentration without a full curve
Summary of the method: (§1)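 HCT116 MTAP-knockout or mock-knockout (MTAP wildtype) cells in RPMI 1640 with 10% FBS were seeded overnight, then exposed to test compound at 0–10 μM final for 6 days at 37° C. Viability was measured by CellTiter-Glo luminescence and IC50 was fitted.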

[2] = tested on: HCT116-mock-RNA-KO; experiment: Cell killing in HCT116 isogenic pair (Cell Titer-Glo viability), mock knock-out cells with MTAP wildtype genotype; assay type: cell-based, human; conditions: Homo sapiens, HCT-116, 144 h, 6 days incubation, 0-10 μM
Summary of the method: as §1

`CN(C(=O)c1cc2nc(N)c3c(c2[nH]1)COC3)[C@@H]1COCc2cc(Br)cc(F)c21` [Example 96, (S)-5-amino-N-(7-bromo-5-fluoroisochroman-4-yl)-N-methyl-6,8-dihydro-1H-furo[3,4-d]pyrrolo[3,2-b]pyridine-2-carboxamide] gave an IC50 [1] of 7.2 nM and an IC50 [2] of 1930 nM.
Work on `CN(C(=O)c1cc2nc(N)c3c(c2[nH]1)COC3)[C@@H]1COCc2cc(C#N)cc(F)c21` [Example 97, (S)-5-amino-N-(7-cyano-5-fluoroisochroman-4-yl)-N-methyl-6,8-dihydro-1H-furo[3,4-d]pyrrolo[3,2-b]pyridine-2-carboxamide] yielded an IC50 [1] of 17 nM and an IC50 [2] of 2890 nM.
`CC(=O)N1Cc2cc(C(F)(F)F)ccc2[C@H](N(C)C(=O)c2cc3nc(N)c4c(c3[nH]2)COC4)C1` [Example 98, (S)—N-(2-acetyl-7-(trifluoromethyl)-1,2,3,4-tetrahydroisoquinolin-4-yl)-5-amino-N-methyl-6,8-dihydro-1H-furo[3,4-d]pyrrolo[3,2-b]pyridine-2-carboxamide] showed an IC50 [1] of 11 nM and an IC50 [2] of 1860 nM.
`CC(=O)N1Cc2cc(C(F)(F)F)ccc2[C@@H](N(C)C(=O)c2cc3nc(N)c4c(c3[nH]2)COC4)C1` [Example 99, (R)—N-(2-acetyl-7-(trifluoromethyl)-1,2,3,4-tetrahydroisoquinolin-4-yl)-5-amino-N-methyl-6,8-dihydro-1H-furo[3,4-d]pyrrolo[3,2-b]pyridine-2-carboxamide] was tested, and the IC50 [1] was 722 nM and the IC50 [2] was over 10000 nM.
With `CN(C(=O)c1cc2nc(N)c3c(c2[nH]1)COC3)[C@@H]1CN(C(=O)C2CC2)Cc2cc(C(F)(F)F)ccc21` [Example 100, (S)-5-amino-N-(2-(cyclopropanecarbonyl)-7-(trifluoromethyl)-1,2,3,4-tetrahydroisoquinolin-4-yl)-N-methyl-6,8-dihydro-1H-furo[3,4-d]pyrrolo[3,2-b]pyridine-2-carboxamide] the IC50 [1] was 1.4 nM and the IC50 [2] was 136 nM.
Compound `CN(C(=O)c1cc2nc(N)c3c(c2[nH]1)COC3)[C@H]1CN(C(=O)C2CC2)Cc2cc(C(F)(F)F)ccc21` [Example 101, (R)-5-amino-N-(2-(cyclopropanecarbonyl)-7-(trifluoromethyl)-1,2,3,4-tetrahydroisoquinolin-4-yl)-N-methyl-6,8-dihydro-1H-furo[3,4-d]pyrrolo[3,2-b]pyridine-2-carboxamide] has an IC50 [1] of 339 nM and an IC50 [2] of 2090 nM.
In the case of `CC(C)C(=O)N1Cc2cc(C(F)(F)F)ccc2[C@H](N(C)C(=O)c2cc3nc(N)c4c(c3[nH]2)COC4)C1` [Example 102, (S)-5-amino-N-(2-isobutyryl-7-(trifluoromethyl)-1,2,3,4-tetrahydroisoquinolin-4-yl)-N-methyl-6,8-dihydro-1H-furo[3,4-d]pyrrolo[3,2-b]pyridine-2-carboxamide], the IC50 [1] is reported as 1.1 nM and the IC50 [2] is reported as 77 nM.
Work on `CC(C)C(=O)N1Cc2cc(C(F)(F)F)ccc2[C@@H](N(C)C(=O)c2cc3nc(N)c4c(c3[nH]2)COC4)C1` [Example 103, (R)-5-amino-N-(2-isobutyryl-7-(trifluoromethyl)-1,2,3,4-tetrahydroisoquinolin-4-yl)-N-methyl-6,8-dihydro-1H-furo[3,4-d]pyrrolo[3,2-b]pyridine-2-carboxamide] yielded an IC50 [1] of 272 nM and an IC50 [2] of 2450 nM.
Work on `CN(C(=O)c1cc2nc(N)c3c(c2[nH]1)COC3)[C@@H]1COCc2cc(-c3cccnc3)ccc21` [Example 104, (S)-5-amino-N-methyl-N-(7-(pyridin-3-yl)isochroman-4-yl)-6,8-dihydro-1H-furo[3,4-d]pyrrolo[3,2-b]pyridine-2-carboxamide] yielded an IC50 [1] of 18 nM and an IC50 [2] of 2730 nM.
`CCC(CC)N(Cc1c(F)cc(C2CC2)cc1F)C(=O)c1cc2nc(N)c3c(c2[nH]1)COC3` [Example 105, 5-amino-N-(4-cyclopropyl-2,6-difluorobenzyl)-N-(pentan-3-yl)-6,8-dihydro-1H-furo[3,4-d]pyrrolo[3,2-b]pyridine-2-carboxamide] showed an IC50 [1] of 13 nM and an IC50 [2] of 930 nM.
Compound `CC(C)N(Cc1ccc(C2CC2)cn1)C(=O)c1cc2nc(N)c3c(c2[nH]1)CO[C@@H]3C` [Example 106, (R)-5-amino-N-((5-cyclopropylpyridin-2-yl)methyl)-N-isopropyl-6-methyl-6,8-dihydro-1H-furo[3,4-d]pyrrolo[3,2-b]pyridine-2-carboxamide] has an IC50 [1] of 11 nM and an IC50 [2] of 2630 nM.
Work on `CC[C@@H](C)N(Cc1ccc(C2CCC2)cn1)C(=O)c1cc2nc(N)c3c(c2[nH]1)COC3` [Example 107, (R)-5-amino-N-(sec-butyl)-N-((5-cyclobutylpyridin-2-yl)methyl)-6,8-dihydro-1H-furo[3,4-d]pyrrolo[3,2-b]pyridine-2-carboxamide] yielded an IC50 [1] of 20 nM and an IC50 [2] of 1090 nM.
In the case of `CC[C@@H](C)N(Cc1ccc(C2CC2)c(C)n1)C(=O)c1cc2nc(N)c3c(c2[nH]1)COC3` [Example 108, (R)-5-amino-N-(sec-butyl)-N-((5-cyclopropyl-6-methylpyridin-2-yl)methyl)-6,8-dihydro-1H-furo[3,4-d]pyrrolo[3,2-b]pyridine-2-carboxamide], the IC50 [1] is reported as 31 nM and the IC50 [2] is reported as 3420 nM.
`CCC(CC)N(Cc1cc(C)c(C2CC2)cn1)C(=O)c1cc2nc(N)c3c(c2[nH]1)COC3` [Example 109, 5-amino-N-((5-cyclopropyl-4-methylpyridin-2-yl)methyl)-N-(pentan-3-yl)-6,8-dihydro-1H-furo[3,4-d]pyrrolo[3,2-b]pyridine-2-carboxamide] gave an IC50 [1] of 24 nM and an IC50 [2] of 1790 nM.
With `CCN(C(=O)c1cc2nc(N)c3c(c2[nH]1)COC3)[C@H](C)c1ncc(C(F)(F)F)cc1F` [Example 110, (R)-5-amino-N-ethyl-N-(1-(3-fluoro-5-(trifluoromethyl)pyridin-2-yl)ethyl)-6,8-dihydro-1H-furo[3,4-d]pyrrolo[3,2-b]pyridine-2-carboxamide] the IC50 [1] was 12 nM and the IC50 [2] was 2490 nM.
`CCN(C(=O)c1cc2nc(N)c3c(c2[nH]1)COC3)[C@@H](C)c1ncc(C(F)(F)F)cc1F` [Example 111, (S)-5-amino-N-ethyl-N-(1-(3-fluoro-5-(trifluoromethyl)pyridin-2-yl)ethyl)-6,8-dihydro-1H-furo[3,4-d]pyrrolo[3,2-b]pyridine-2-carboxamide] showed an IC50 [1] of 2200 nM and an IC50 [2] of over 10000 nM.
Compound `CCN(C(=O)c1cc2nc(N)c3c(c2[nH]1)COC3)[C@H](C)c1ccc(C2CC2)cn1` [Example 112, (R)-5-amino-N-(1-(5-cyclopropylpyridin-2-yl)ethyl)-N-ethyl-6,8-dihydro-1H-furo[3,4-d]pyrrolo[3,2-b]pyridine-2-carboxamide] has an IC50 [1] of 59 nM and an IC50 [2] of over 10000 nM.
Work on `CCN(C(=O)c1cc2nc(N)c3c(c2[nH]1)COC3)[C@@H](C)c1ccc(C2CC2)cn1` [Example 113, (S)-5-amino-N-(1-(5-cyclopropylpyridin-2-yl)ethyl)-N-ethyl-6,8-dihydro-1H-furo[3,4-d]pyrrolo[3,2-b]pyridine-2-carboxamide] yielded an IC50 [1] of 1610 nM and an IC50 [2] of over 10000 nM.
`CCN(C(=O)c1cc2nc(N)c3c(c2[nH]1)COC3)[C@@H](C)c1ccc(C(F)(F)F)cn1` [Example 114, (S)-5-amino-N-ethyl-N-(1-(5-(trifluoromethyl)pyridin-2-yl)ethyl)-6,8-dihydro-1H-furo[3,4-d]pyrrolo[3,2-b]pyridine-2-carboxamide] showed an IC50 [1] of 3630 nM and an IC50 [2] of over 10000 nM.
In the case of `CCN(C(=O)c1cc2nc(N)c3c(c2[nH]1)COC3)[C@H](C)c1ccc(C(F)(F)F)cn1` [Example 115, (R)-5-amino-N-ethyl-N-(1-(5-(trifluoromethyl)pyridin-2-yl)ethyl)-6,8-dihydro-1H-furo[3,4-d]pyrrolo[3,2-b]pyridine-2-carboxamide], the IC50 [1] is reported as 43 nM and the IC50 [2] is reported as 6820 nM.
For `CCC(CC)N(Cc1c(F)cc(C(F)(F)F)cc1F)C(=O)c1cc2nc(N)c3c(c2[nH]1)CO[C@@H]3C` [Example 116, (R)-5-amino-N-(2,6-difluoro-4-(trifluoromethyl)benzyl)-6-methyl-N-(pentan-3-yl)-6,8-dihydro-1H-furo[3,4-d]pyrrolo[3,2-b]pyridine-2-carboxamide], the IC50 [1] was 6.9 nM and the IC50 [2] was 269 nM.
`CCC(CC)N(Cc1ncc(N2CCOCC2)cc1F)C(=O)c1cc2nc(N)c3c(c2[nH]1)COC3` [Example 117, 5-amino-N-((3-fluoro-5-morpholinopyridin-2-yl)methyl)-N-(pentan-3-yl)-6,8-dihydro-1H-furo[3,4-d]pyrrolo[3,2-b]pyridine-2-carboxamide] gave an IC50 [1] of 6.5 nM and an IC50 [2] of 609 nM.
Compound `C[C@@H](c1ncc(C2CC2)cc1F)N(C)C(=O)c1cc2nc(N)c3c(c2[nH]1)COC3` [Example 118, (S)-5-amino-N-(1-(5-cyclopropyl-3-fluoropyridin-2-yl)ethyl)-N-methyl-6,8-dihydro-1H-furo[3,4-d]pyrrolo[3,2-b]pyridine-2-carboxamide] has an IC50 [1] of 2250 nM and an IC50 [2] of over 10000 nM.
Compound `C[C@H](c1ncc(C2CC2)cc1F)N(C)C(=O)c1cc2nc(N)c3c(c2[nH]1)COC3` [Example 119, (R)-5-amino-N-(1-(5-cyclopropyl-3-fluoropyridin-2-yl)ethyl)-N-methyl-6,8-dihydro-1H-furo[3,4-d]pyrrolo[3,2-b]pyridine-2-carboxamide] has an IC50 [1] of 9.8 nM and an IC50 [2] of 1590 nM.
Work on `CCN(C(=O)c1cc2nc(N)c3c(c2[nH]1)COC3)[C@H](C)c1ncc(C2CC2)cc1F` [Example 120, (R)-5-amino-N-(1-(5-cyclopropyl-3-fluoropyridin-2-yl)ethyl)-N-ethyl-6,8-dihydro-1H-furo[3,4-d]pyrrolo[3,2-b]pyridine-2-carboxamide] yielded an IC50 [1] of 5.6 nM and an IC50 [2] of 992 nM.
Compound `CCN(C(=O)c1cc2nc(N)c3c(c2[nH]1)COC3)[C@@H](C)c1ncc(C2CC2)cc1F` [Example 121, (S)-5-amino-N-(1-(5-cyclopropyl-3-fluoropyridin-2-yl)ethyl)-N-ethyl-6,8-dihydro-1H-furo[3,4-d]pyrrolo[3,2-b]pyridine-2-carboxamide] has an IC50 [1] of 586 nM and an IC50 [2] of over 10000 nM.
